Measured values reported in ChEMBL document CHEMBL3414527, “Engineering potent and selective analogues of GpTx-1, a tarantula venom peptide antagonist of the Na(V)1.7 sodium channel” (J Med Chem, 2015).
Bridge positions count the residues as written; N and C are the ends. Peptide text beside a SMILES is read from it.

Tests used:
[1] = molecular target: Sodium channel protein type 5 subunit alpha (Homo sapiens, UniProt Q14524); test: Inhibition of human NaV1.5 at -140 mV holding potential by whole-cell patch clamp assay
Sodium channel protein type 5 subunit alpha, sequence (Q14524 whole entry): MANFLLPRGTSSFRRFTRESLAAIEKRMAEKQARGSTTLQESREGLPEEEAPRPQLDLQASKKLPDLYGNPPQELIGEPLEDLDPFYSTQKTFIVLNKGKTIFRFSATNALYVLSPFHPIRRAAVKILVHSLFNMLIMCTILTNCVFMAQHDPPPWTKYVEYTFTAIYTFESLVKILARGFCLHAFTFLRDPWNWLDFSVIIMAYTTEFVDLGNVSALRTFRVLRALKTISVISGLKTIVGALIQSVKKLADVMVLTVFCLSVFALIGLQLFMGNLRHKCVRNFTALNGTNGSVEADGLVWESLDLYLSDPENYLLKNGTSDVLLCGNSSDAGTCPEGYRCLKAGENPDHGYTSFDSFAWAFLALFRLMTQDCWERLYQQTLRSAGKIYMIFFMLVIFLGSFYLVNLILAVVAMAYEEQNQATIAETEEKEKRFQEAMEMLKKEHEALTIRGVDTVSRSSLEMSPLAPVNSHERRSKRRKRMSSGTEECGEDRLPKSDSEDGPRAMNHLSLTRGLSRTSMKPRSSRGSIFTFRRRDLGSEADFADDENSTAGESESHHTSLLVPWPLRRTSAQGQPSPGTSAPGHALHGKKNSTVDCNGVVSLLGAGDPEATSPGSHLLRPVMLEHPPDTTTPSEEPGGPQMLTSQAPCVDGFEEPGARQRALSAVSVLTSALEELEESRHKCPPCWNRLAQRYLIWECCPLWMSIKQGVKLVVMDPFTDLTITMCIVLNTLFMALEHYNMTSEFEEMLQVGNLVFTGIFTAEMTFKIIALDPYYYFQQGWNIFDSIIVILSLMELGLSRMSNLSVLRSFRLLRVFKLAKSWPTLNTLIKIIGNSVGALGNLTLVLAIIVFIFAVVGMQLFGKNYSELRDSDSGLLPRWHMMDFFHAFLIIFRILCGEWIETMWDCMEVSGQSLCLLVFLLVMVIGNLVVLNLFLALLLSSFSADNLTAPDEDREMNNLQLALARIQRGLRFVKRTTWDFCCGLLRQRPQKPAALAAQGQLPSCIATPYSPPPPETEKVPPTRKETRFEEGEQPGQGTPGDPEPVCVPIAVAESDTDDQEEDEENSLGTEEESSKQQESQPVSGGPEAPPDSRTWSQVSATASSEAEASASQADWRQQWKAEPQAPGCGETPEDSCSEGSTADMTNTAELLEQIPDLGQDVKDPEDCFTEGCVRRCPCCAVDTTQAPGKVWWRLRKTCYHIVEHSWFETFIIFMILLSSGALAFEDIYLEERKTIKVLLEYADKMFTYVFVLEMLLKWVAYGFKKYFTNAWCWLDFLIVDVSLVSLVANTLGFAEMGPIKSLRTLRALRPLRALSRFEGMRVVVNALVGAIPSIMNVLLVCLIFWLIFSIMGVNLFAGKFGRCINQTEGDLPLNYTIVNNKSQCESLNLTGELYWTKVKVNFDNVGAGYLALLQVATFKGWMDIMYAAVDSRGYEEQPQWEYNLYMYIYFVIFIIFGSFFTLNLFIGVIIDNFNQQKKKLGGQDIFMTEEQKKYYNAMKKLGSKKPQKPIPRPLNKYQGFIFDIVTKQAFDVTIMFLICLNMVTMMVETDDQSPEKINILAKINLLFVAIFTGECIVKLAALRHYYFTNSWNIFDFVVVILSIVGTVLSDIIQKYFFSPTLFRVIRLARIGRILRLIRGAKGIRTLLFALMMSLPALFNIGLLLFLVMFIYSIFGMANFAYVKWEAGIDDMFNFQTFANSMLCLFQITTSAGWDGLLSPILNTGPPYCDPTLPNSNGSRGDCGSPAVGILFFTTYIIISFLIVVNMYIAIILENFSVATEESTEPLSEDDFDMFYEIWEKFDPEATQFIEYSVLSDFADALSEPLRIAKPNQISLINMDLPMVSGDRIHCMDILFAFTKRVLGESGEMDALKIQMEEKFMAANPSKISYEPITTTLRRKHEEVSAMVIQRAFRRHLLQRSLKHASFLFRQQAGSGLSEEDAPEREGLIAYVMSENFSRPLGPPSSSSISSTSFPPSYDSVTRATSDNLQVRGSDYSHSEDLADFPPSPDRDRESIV

[2] = molecular target: Sodium channel protein type 9 subunit alpha (Homo sapiens, UniProt Q15858); test: Inhibition of human NaV1.7 at -140 mV holding potential by whole-cell patch clamp assay
Sodium channel protein type 9 subunit alpha, sequence (Q15858 whole entry): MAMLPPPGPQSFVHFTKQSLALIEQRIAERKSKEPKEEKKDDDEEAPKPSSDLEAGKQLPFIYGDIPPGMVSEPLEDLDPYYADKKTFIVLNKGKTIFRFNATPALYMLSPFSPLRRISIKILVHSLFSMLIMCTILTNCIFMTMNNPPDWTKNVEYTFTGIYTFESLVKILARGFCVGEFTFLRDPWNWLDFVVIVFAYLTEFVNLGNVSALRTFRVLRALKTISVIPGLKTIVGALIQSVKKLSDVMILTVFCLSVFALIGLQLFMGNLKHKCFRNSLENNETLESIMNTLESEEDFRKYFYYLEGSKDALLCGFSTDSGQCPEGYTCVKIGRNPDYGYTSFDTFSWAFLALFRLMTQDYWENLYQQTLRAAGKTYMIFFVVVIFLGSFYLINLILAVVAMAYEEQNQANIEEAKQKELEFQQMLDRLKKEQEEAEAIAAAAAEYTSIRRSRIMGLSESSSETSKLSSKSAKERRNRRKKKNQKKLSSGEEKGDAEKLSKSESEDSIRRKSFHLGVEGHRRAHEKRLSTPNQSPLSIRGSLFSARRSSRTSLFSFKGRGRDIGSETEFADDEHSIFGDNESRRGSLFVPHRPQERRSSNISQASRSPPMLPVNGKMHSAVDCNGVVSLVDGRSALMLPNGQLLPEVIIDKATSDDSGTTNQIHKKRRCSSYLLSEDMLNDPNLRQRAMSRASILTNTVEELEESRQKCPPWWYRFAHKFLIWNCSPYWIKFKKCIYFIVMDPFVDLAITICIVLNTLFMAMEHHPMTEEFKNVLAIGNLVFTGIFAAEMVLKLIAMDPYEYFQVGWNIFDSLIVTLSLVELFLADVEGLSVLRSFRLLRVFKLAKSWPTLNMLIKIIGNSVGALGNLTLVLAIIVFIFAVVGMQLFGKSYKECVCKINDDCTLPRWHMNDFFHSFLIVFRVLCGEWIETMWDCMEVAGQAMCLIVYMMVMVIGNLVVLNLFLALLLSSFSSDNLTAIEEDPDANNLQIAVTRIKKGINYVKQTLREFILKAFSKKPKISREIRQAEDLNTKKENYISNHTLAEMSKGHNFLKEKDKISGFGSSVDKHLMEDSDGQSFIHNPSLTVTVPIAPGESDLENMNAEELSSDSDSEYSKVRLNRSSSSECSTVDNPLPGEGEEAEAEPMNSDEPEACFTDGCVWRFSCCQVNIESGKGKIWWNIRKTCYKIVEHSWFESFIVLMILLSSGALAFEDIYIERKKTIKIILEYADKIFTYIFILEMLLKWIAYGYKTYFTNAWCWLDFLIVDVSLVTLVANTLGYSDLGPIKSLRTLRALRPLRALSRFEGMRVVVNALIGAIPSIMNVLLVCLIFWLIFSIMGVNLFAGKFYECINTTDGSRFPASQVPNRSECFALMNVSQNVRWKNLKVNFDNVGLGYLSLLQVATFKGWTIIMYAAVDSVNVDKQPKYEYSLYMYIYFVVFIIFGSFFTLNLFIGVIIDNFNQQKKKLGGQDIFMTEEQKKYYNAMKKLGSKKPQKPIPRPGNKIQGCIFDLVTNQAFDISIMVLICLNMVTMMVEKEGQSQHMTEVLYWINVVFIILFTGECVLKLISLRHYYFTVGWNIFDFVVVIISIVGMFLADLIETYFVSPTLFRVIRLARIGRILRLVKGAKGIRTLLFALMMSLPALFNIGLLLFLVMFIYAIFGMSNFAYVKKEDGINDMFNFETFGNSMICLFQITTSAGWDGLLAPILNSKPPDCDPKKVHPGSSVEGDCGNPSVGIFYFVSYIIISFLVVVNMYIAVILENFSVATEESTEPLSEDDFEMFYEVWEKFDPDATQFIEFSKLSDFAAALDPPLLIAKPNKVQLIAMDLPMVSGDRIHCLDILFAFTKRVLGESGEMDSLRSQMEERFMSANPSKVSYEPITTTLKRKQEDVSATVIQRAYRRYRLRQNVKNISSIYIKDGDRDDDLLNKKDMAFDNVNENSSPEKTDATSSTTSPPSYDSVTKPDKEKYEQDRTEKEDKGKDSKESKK

SMILES: CC[C@H](C)[C@@H]1NC(=O)[C@@H]2CSSC[C@@H]3NC(=O)[C@H](C(C)C)NC(=O)[C@H](CC(C)C)NC(=O)[C@H](CC(N)=O)NC(=O)[C@@H]4CCCN4C(=O)[C@H](CCCNC(=N)N)NC(=O)[C@H](CSSC[C@H](NC(=O)[C@@H](N)CC(=O)O)C(=O)N[C@@H](CC(C)C)C(=O)NCC(=O)N[C@@H](C4CCCCC4)C(=O)N[C@@H](CCSC)C(=O)N[C@@H](CCCNC(=N)N)C(=O)N[C@@H](CCCCN)C(=O)N2)NC(=O)[C@H](CSSC[C@@H](C(=O)N[C@@H](CCCCN)C(=O)N[C@@H](Cc2ccc(O)cc2)C(=O)N[C@H](C(=O)N[C@@H](Cc2ccccc2)C(N)=O)C(C)C)NC(=O)[C@H](Cc2c[nH]c4ccccc24)NC(=O)[C@H](CCCCN)NC(=O)[C@H](Cc2cnc[nH]2)NC(=O)[C@H]([C@@H](C)O)NC(=O)[C@H](CCCNC(=N)N)NC(=O)[C@H](CO)NC3=O)NC(=O)[C@H](CCCCN)NC(=O)[C@H](CC(=O)O)NC(=O)[C@H](CC(N)=O)NC(=O)[C@H](CC(=O)O)NC(=O)[C@@H]2CCCN2C1=O
- IC50 [1]: > 10 µM
- IC50 [2]: 6 nM

SMILES: CC[C@H](C)[C@@H]1NC(=O)[C@@H]2CSSC[C@@H]3NC(=O)[C@H](C(C)C)NC(=O)[C@H](CC(C)C)NC(=O)[C@H](CC(N)=O)NC(=O)[C@@H]4CCCN4C(=O)[C@H](CCCNC(=N)N)NC(=O)[C@H](CSSC[C@H](NC(=O)[C@@H](N)CC(=O)O)C(=O)N[C@@H](CC(C)C)C(=O)NCC(=O)N[C@@H](Cc4ccccc4)C(=O)N[C@@H](CCSC)C(=O)N[C@@H](CCCNC(=N)N)C(=O)N[C@@H](CCCCN)C(=O)N2)NC(=O)[C@H](CSSC[C@@H](C(=O)N[C@@H](CCCCN)C(=O)N[C@@H](Cc2ccc(O)cc2)C(=O)N[C@H](C(=O)N[C@@H](Cc2ccccc2)C(N)=O)C(C)C)NC(=O)[C@H](Cc2c[nH]c4ccccc24)NC(=O)[C@H](CCCCN)NC(=O)[C@H](Cc2cnc[nH]2)NC(=O)[C@H](CCC(=O)O)NC(=O)[C@H](CCCNC(=N)N)NC(=O)[C@H](CO)NC3=O)NC(=O)[C@H](CCCCN)NC(=O)[C@H](CC(=O)O)NC(=O)[C@H](CC(N)=O)NC(=O)[C@H](CC(=O)O)NC(=O)[C@@H]2CCCN2C1=O (H-DCLGFMRKCIPDNDKCCRPNLVCSREHKWCKYVF-NH2; disulfide 2-17, 9-23, 16-30)
- IC50 [1]: > 10 µM
- IC50 [2]: 34 nM

SMILES: CC[C@H](C)[C@@H]1NC(=O)[C@@H]2CSSC[C@@H]3NC(=O)[C@H](C(C)C)NC(=O)[C@H](CC(C)C)NC(=O)[C@H](CC(N)=O)NC(=O)[C@@H]4CCCN4C(=O)[C@H](CCCNC(=N)N)NC(=O)[C@H](CSSC[C@H](NC(=O)[C@@H](N)CC(=O)O)C(=O)N[C@@H](C)C(=O)NCC(=O)N[C@@H](Cc4ccccc4)C(=O)N[C@@H](CCSC)C(=O)N[C@@H](CCCNC(=N)N)C(=O)N[C@@H](CCCCN)C(=O)N2)NC(=O)[C@H](CSSC[C@@H](C(=O)N[C@@H](CCCCN)C(=O)N[C@@H](Cc2ccc(O)cc2)C(=O)N[C@H](C(=O)N[C@@H](Cc2ccccc2)C(N)=O)C(C)C)NC(=O)[C@H](Cc2c[nH]c4ccccc24)NC(=O)[C@H](CCCCN)NC(=O)[C@H](Cc2cnc[nH]2)NC(=O)[C@H]([C@@H](C)O)NC(=O)[C@H](CCCNC(=N)N)NC(=O)[C@H](CO)NC3=O)NC(=O)[C@H](CCCCN)NC(=O)[C@H](CC(=O)O)NC(=O)[C@H](CC(N)=O)NC(=O)[C@H](CC(=O)O)NC(=O)[C@@H]2CCCN2C1=O (H-DCAGFMRKCIPDNDKCCRPNLVCSRTHKWCKYVF-NH2; disulfide 2-17, 9-23, 16-30)
- IC50 [1]: > 5 µM
- IC50 [2]: 430 nM

SMILES: CC[C@H](C)[C@@H]1NC(=O)[C@@H]2CSSC[C@@H]3NC(=O)[C@H](C(C)C)NC(=O)[C@H](CC(C)C)NC(=O)[C@H](CC(N)=O)NC(=O)[C@@H]4CCCN4C(=O)[C@H](CCCNC(=N)N)NC(=O)[C@H](CSSC[C@H](NC(=O)[C@@H](N)CC(=O)O)C(=O)N[C@@H](CC(C)C)C(=O)NCC(=O)N[C@@H](Cc4ccccc4)C(=O)N[C@@H](CCSC)C(=O)N[C@@H](CCCNC(=N)N)C(=O)N[C@@H](CCCCN)C(=O)N2)NC(=O)[C@H](CSSC[C@@H](C(=O)N[C@@H](CCCCN)C(=O)N[C@@H](Cc2ccc(O)cc2)C(=O)N[C@@H](C)C(=O)N[C@@H](Cc2ccccc2)C(N)=O)NC(=O)[C@H](Cc2c[nH]c4ccccc24)NC(=O)[C@H](CCCCN)NC(=O)[C@H](Cc2cnc[nH]2)NC(=O)[C@H]([C@@H](C)O)NC(=O)[C@H](CCCNC(=N)N)NC(=O)[C@H](CO)NC3=O)NC(=O)[C@H](CCCCN)NC(=O)[C@H](CC(=O)O)NC(=O)[C@H](CC(N)=O)NC(=O)[C@H](CC(=O)O)NC(=O)[C@@H]2CCCN2C1=O (H-DCLGFMRKCIPDNDKCCRPNLVCSRTHKWCKYAF-NH2; disulfide 2-17, 9-23, 16-30)
- IC50 [1]: > 5 µM
- IC50 [2]: 170 nM

SMILES: CC[C@H](C)[C@@H]1NC(=O)[C@@H]2CSSC[C@@H]3NC(=O)[C@H](C(C)C)NC(=O)[C@H](CC(C)C)NC(=O)[C@H](CC(N)=O)NC(=O)[C@@H]4CCCN4C(=O)[C@H](CCCNC(=N)N)NC(=O)[C@H](CSSC[C@H](NC(=O)[C@@H](N)CC(=O)O)C(=O)N[C@@H](CC(C)C)C(=O)NCC(=O)N[C@@H](Cc4ccccc4)C(=O)N[C@@H](CC(C)C)C(=O)N[C@@H](CCCNC(=N)N)C(=O)N[C@@H](CCCCN)C(=O)N2)NC(=O)[C@H](CSSC[C@@H](C(=O)N[C@@H](CCCCN)C(=O)N[C@@H](Cc2ccc(O)cc2)C(=O)N[C@H](C(=O)N[C@@H](Cc2ccccc2)C(N)=O)C(C)C)NC(=O)[C@H](Cc2c[nH]c4ccccc24)NC(=O)[C@H](CCCCN)NC(=O)[C@H](Cc2cnc[nH]2)NC(=O)[C@H]([C@@H](C)O)NC(=O)[C@H](CCCNC(=N)N)NC(=O)[C@H](CO)NC3=O)NC(=O)[C@H](CCCCN)NC(=O)[C@H](CC(=O)O)NC(=O)[C@H](CC(N)=O)NC(=O)[C@H](CC(=O)O)NC(=O)[C@@H]2CCCN2C1=O (H-DCLGFLRKCIPDNDKCCRPNLVCSRTHKWCKYVF-NH2; disulfide 2-17, 9-23, 16-30)
- IC50 [1]: > 10 µM
- IC50 [2]: 24 nM

SMILES: CC[C@H](C)[C@@H]1NC(=O)[C@@H]2CSSC[C@@H]3NC(=O)[C@H](C(C)C)NC(=O)[C@H](CC(C)C)NC(=O)[C@H](CC(N)=O)NC(=O)[C@@H]4CCCN4C(=O)[C@H](CCCNC(=N)N)NC(=O)[C@H](CSSC[C@H](NC(=O)[C@@H](N)CC(=O)O)C(=O)N[C@@H](CC(C)C)C(=O)NCC(=O)N[C@@H](Cc4ccccc4)C(=O)N[C@@H](CCSC)C(=O)N[C@@H](CCCNC(=N)N)C(=O)N[C@@H](CCCCN)C(=O)N2)NC(=O)[C@H](CSSC[C@@H](C(=O)N[C@@H](CCCCN)C(=O)N[C@@H](Cc2ccc(O)cc2)C(=O)N[C@H](C(=O)N[C@@H](Cc2ccccc2)C(N)=O)C(C)C)NC(=O)[C@H](Cc2c[nH]c4ccccc24)NC(=O)[C@H](CCCCN)NC(=O)[C@H](C)NC(=O)[C@H]([C@@H](C)O)NC(=O)[C@H](CCCNC(=N)N)NC(=O)[C@H](CO)NC3=O)NC(=O)[C@H](CCCCN)NC(=O)[C@H](CC(=O)O)NC(=O)[C@H](CC(N)=O)NC(=O)[C@H](CC(=O)O)NC(=O)[C@@H]2CCCN2C1=O (H-DCLGFMRKCIPDNDKCCRPNLVCSRTAKWCKYVF-NH2; disulfide 2-17, 9-23, 16-30)
- IC50 [1]: > 5 µM
- IC50 [2]: 970 nM
